# Legend:
# [1] = tested on: mouse maximal electroshock seizure (MES) model; test: Maximal electroshock seizure (MES) test, mouse; type: in vivo; conditions: MES, mouse; read-out: Mouse ED50
# Text: (§1) The MES testing protocol is based on procedures established at the National Institute of Neurological Disorders and Stroke in conjunction with the Anticonvulsant Screening Program (ASP) at the University of Utah (White, H. S., Woodhead, J. H., Wilcox, K. S., Stables, J. P., Kupferberg, H. J and Wolf, H. H. 2002. “General Principles: Discovery and Preclinical Development of Antiepileptic Drugs,” in Antiepileptic Drugs, 5th Edition, R. H. Levy, ed.; R. H. Mattson, B. S. Meldrum, and E. Perucca. Philadelphia, Lippincott Williams & Wilkins.), The goal of the test rapid identification and characterization of the in vivo anticonvulsant activity of any compounds that have been shown active in PC-12 cellular based Rb^+ efflux assay.
# (§2) Adult male CF-I albino mice (18-25 g, Charles River Laboratories) are exclusively used for in-house MES screen of compounds. Male Sprague-Dawley albino rats (100-125 g, Charles River Laboratories) are also used to test anticonvulsant compounds. Variability of test outcomes is reduced by using animals of the same sex, age, and weight. Animals are permitted to rest and recover from transit for at least 48 hr prior to experimentation. Animals are used for AED testing only once. In some instances, the animals may be anesthetized prior to blood collection and/or whole brain extraction for pharmacokinetic assay. All animals are maintained and handled as outlined in standard animal care guidelines.
# (§3) In the experiments, testing compounds are prepared as suspensions in 0.5% methyl cellulose (Sigma, Cat #M0512, Viscosity 4000 cP at 20° C.) in water, regardless of solubility. Dry powder compounds are initially ground with a glass rod in a test tube in several drops of methyl cellulose to create a paste and to break down any large chunks. After several minutes of grinding, the volume of the suspension is increased to the final concentration desired. The suspension is then sonicated using a Branson sonicator model 3510 in a water bath at room temperature for 15 minutes. Compound suspensions are further vortexed prior to animal dosing. In some of the cases, DMSO is used to initially solubilize compounds in small volumes and then this solution is added to the 0.5% methyl cellulose solution, in order to create more even and less aggregated compound suspensions. The final concentration of DMSO is 3.75%, an amount with no apparent toxicity or neuroprotective effects in our usual rotarod and MES tests. Methyl cellulose/DMSO compound suspensions are identically prepared for intraperitoneally (i.p.) to mice or orally (p.o.) to rat dosing.
# Initially the animals are weighed with an electronic scale and then marked. Data recording sheets are generated for each compound assessment. Mice or rats are dosed with the compound suspension at 0.01 mL/g of body weight. The typical injection volume range is between 180-250 μl for mice. […] Rats are p.o. dosed using a flexible feeding tube, typically starting at a compound dose of 5 mg/kg.
# A Rodent Electroconvulsive Stimulator (Model 200, Hamit-Darvin-Freesh, Snow Canyon Clinic, Ivins, Utah) is used for MES testing. A 60-Hz alternating current (50 mA for mice; 150 mA for rats) is delivered for 0.2 seconds through corneal electrodes to the mice. A drop of 0.5% tetracaine (Sigma, Cat. #T-7508) solution is placed on the eye prior to current delivery. The electrodes are subsequently placed gently onto the eyes of the animal and the electrical shock is initiated by triggering through a foot-pedal activator. The animals are restrained by hand and gently released as the shock is delivered and the seizure commences. Animals are monitored for hind limb tonic extension as the end point for this test. Current delivery is recorded as a measure of overall seizure-induction potential. Electrical current delivery can vary from approximately 30-55 mA (mice) or 90-160 mA (rats) depending on impedance in the animal and quality of the current delivery (ie. correct placement of the electrodes on the cornea). […]
# [2] = tested on: rat MES model of epilepsy; test: Maximal electroshock seizure (MES) test, rat; type: in vivo; conditions: MES, rat; read-out: Rat ED50
# Text: as §1, §2, §3
# Initially the animals are weighed with an electronic scale and then marked. Data recording sheets are generated for each compound assessment. Mice or rats are dosed with the compound suspension at 0.01 mL/g of body weight. The typical injection volume range is between 180-250 μl for mice. Compounds are dosed by i.p. to mice using a 25 or 22 gauge needle, depending on the viscosity of the suspension. Rats are p.o. dosed using a flexible feeding tube, typically starting at a compound dose of 5 mg/kg.
# A Rodent Electroconvulsive Stimulator (Model 200, Hamit-Darvin-Freesh, Snow Canyon Clinic, Ivins, Utah) is used for MES testing. A 60-Hz alternating current (50 mA for mice; 150 mA for rats) is delivered for 0.2 seconds through corneal electrodes to the mice. […] Animals are monitored for hind limb tonic extension as the end point for this test. Current delivery is recorded as a measure of overall seizure-induction potential. […]
# [3] = target: KCNQ1 (Homo sapiens, UniProt P51787); test: Two-electrode voltage-clamp in Xenopus laevis oocytes, KCNQ1; type: cell-based; parameters: KCNQ1 Block (%): dose or concentration left out as unconfirmed; conditions: oocyte expression
# Description: (§4) Female Xenopus laevis extracted ovaries were purchased from eNASCO (LM00935MX, eNASCO Fort Atkinson, Wis.). […] Approximately 50 nl cRNA (about 50 ng) was injected for KCNQ1, KCNQ4, and KCNQ5 using a Nanoject microinjector (Drummond, Broomall, Pa., USA). For co-expression of KCNQ2 and KCNQ3 and of KCNQ1 and KCNE1, cRNA's were mixed in equal molar ratios before injection of approximately 50 nl. […] Oocytes were kept in Culture Barth solution at 19° C. which was changed daily and currents were recorded after 3 to 5 days.
# (§5) KCNQ channel currents expressed in Xenopus laevis oocytes were recorded using a two-electrode voltage-clamp. […] The oocytes were placed in custom built perfusion chambers connected to a continuous flow system and impaled with a current electrode and a voltage-clamp electrode pulled from borosilicate glass on a Flaming/Brown Micropipette Puller (Sutter Instruments Co, Novato, Calif., USA).
# (§6) All compounds were dissolved in DMSO to obtain concentrated stock solutions. On the day of electrophysiological experiments the stock solutions were thawed and diluted in recording solution to their final concentrations. The final DMSO concentration never exceeded 0.1%. Compound delivery was performed using a custom built multi-barrel apparatus connected to the flow system.
# (§7) Data were acquired by means of an Axograph X software (Axograph Scientific, Sydney, AU) and analyzed using Graph Pad Prism (GraphPad Software Inc., CA, USA). […]
# (§8) After steady channel current was recorded in the presence of Retigabine at its EC75, recorded oocyte was washed with the recording solution until its steady current returned to its normal level without the presence of any drugs. Then the channel steady current was recorded in the presence of the test compound at its EC75. The percent efficacy was then expressed as: % efficacy=(C2/C 1)×100 where C2 is the recorded steady current in the presence of follow-on compound at its EC75 and C1 is the recorded steady current in the presence of Retigabine at its EC75.
# [4] = target: KCNQ1/NE1 (Homo sapiens, UniProt P51787); test: Two-electrode voltage-clamp in Xenopus laevis oocytes, KCNQ1/KCNE1; type: cell-based; parameters: dose or concentration left out as unconfirmed; conditions: oocyte expression
# Description: as §4
# KCNQ channel currents expressed in Xenopus laevis oocytes were recorded using a two-electrode voltage-clamp. […]
# as §7, §8
# [5] = target: KCNQ2/3 (Homo sapiens, UniProt O43525+O43526); test: Two-electrode voltage-clamp in Xenopus laevis oocytes, KCNQ2/3; type: cell-based; conditions: oocyte expression, at EC75
# Description: as §4, §5, §6, §7, §8
# [6] = target: KCNQ4 (Homo sapiens, UniProt P56696); test: Two-electrode voltage-clamp in Xenopus laevis oocytes, KCNQ4; type: cell-based; conditions: oocyte expression, at EC75
# Description: as §4, §5, §6, §7, §8
# [7] = target: KCNQ5 (Homo sapiens, UniProt Q9NR82); test: Two-electrode voltage-clamp in Xenopus laevis oocytes, KCNQ5; type: cell-based; conditions: oocyte expression, at EC75
# Description: as §4, §5, §6, §7, §8
# [8] = target: T1, KCNQ2 channels (Homo sapiens, UniProt O43526); test: Potassium ion efflux, KCNQ2 channels expressed in CHO cells; type: cell-based
# T1 construct: expressed in transfected cells; host or cells: CHO cells
# Description: Using natively expressed M-currents present in differentiated pheochromocytoma (PC-12) cells and CHO cells transfected with KCNQ2 and hERG potassium channels, the in vitro activity of compound A on potassium ion efflux was determined.
# The EC50 values for retigabine and compound A on the activation of KCNQ2 channels expressed in CHO cells were determined on three separate occasions in triplicate.
# KCNQ1/NE1, sequence (P51787 whole entry): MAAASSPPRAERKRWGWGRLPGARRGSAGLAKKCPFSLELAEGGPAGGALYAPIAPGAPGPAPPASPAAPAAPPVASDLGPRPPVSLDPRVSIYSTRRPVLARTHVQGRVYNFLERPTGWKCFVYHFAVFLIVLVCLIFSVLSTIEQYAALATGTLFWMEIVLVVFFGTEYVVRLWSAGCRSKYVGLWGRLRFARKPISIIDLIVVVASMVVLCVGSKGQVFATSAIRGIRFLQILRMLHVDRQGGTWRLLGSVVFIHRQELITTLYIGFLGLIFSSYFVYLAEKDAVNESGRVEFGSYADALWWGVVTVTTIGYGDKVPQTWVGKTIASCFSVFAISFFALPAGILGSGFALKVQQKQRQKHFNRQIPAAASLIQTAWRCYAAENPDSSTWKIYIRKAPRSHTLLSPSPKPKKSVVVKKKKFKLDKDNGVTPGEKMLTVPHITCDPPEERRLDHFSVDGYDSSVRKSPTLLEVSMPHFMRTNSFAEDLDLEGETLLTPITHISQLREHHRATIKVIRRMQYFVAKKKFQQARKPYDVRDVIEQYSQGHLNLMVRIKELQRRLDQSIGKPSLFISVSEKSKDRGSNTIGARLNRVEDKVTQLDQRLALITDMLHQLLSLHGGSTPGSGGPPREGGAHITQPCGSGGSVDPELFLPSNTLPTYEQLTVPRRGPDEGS
# T1 sequence (O43526 whole entry): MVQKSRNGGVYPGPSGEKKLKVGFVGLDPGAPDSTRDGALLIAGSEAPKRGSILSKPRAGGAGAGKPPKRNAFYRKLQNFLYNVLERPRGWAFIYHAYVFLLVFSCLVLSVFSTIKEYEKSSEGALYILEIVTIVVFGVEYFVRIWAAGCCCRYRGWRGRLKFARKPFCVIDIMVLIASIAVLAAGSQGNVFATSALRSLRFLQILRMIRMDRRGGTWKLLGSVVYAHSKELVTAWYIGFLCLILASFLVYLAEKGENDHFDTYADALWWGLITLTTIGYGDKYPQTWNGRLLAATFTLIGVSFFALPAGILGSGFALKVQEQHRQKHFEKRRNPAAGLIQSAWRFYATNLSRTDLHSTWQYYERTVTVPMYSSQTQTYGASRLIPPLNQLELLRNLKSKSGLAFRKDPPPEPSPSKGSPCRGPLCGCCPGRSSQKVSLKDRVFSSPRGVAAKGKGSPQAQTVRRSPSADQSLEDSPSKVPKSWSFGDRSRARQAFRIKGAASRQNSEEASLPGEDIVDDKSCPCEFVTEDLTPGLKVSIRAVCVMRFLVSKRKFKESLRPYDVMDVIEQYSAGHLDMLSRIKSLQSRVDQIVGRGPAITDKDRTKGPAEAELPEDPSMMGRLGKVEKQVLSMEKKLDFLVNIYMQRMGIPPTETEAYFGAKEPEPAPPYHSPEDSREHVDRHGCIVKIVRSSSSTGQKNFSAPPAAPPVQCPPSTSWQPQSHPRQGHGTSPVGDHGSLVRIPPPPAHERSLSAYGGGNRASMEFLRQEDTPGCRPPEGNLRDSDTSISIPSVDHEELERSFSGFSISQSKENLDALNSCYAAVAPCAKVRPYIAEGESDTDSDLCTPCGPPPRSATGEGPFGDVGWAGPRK
Structure (SMILES),ED50 [1] [mg/kg],further results
CC(C)(C)CC(=O)Nc1c(Cl)cc(N2CCc3ccccc3C2)cc1C(F)(F)F,> 12,–
O=C(CCC1CCCC1)Nc1c(Cl)cc(N2CCc3ccccc3C2)cc1C(F)(F)F,> 12,–
Cc1cc(N2CCc3ccccc3C2)cc(C)c1NC(=O)CC(C)(C)C,0.12 to 1.2,–
CC(C)(C)CC(=O)Nc1c(Cl)cc(N2CCc3cc(F)ccc3C2)cc1C(F)(F)F,> 12,–
Cc1cc(N2CCc3ccccc3C2)cc(Cl)c1NC(=O)CC(C)(C)C,0.12 to 1.2,–
Cc1cc(N2CCc3ccc(F)cc3C2)cc(C)c1NC(=O)CC(C)(C)C,0.12 to 1.2,–
Cc1cc(N2CCc3cc(F)ccc3C2)cc(Cl)c1NC(=O)CC(C)(C)C,> 12,–
Cc1cc(N2CCc3cc(C(F)(F)F)ccc3C2)cc(Cl)c1NC(=O)CC(C)(C)C,> 12,–
CC(C)(C)CC(=O)Nc1c(Cl)cc(N2CCc3cc(C(F)(F)F)ccc3C2)cc1C(F)(F)F,> 12,–
Cc1cc(N2CCc3cc(C(F)(F)F)ccc3C2)cc(C)c1NC(=O)CC(C)(C)C,0.12 to 1.2,ED50 [2]: 0.12 to 1.2 mg/kg
O=C(CCC1CCCC1)Nc1c(Cl)cc(N2CCc3cc(F)ccc3C2)cc1C(F)(F)F,> 12,–
Cc1cc(N2CCc3cc(Cl)ccc3C2)cc(C)c1NC(=O)CC(C)(C)C,0.12 to 1.2,–
CC(C)(C)CC(=O)Nc1c(Cl)cc(N2CCc3cc(Cl)ccc3C2)cc1C(F)(F)F,> 12,–
Cc1cc(N2CCc3ccc(F)cc3C2)cc(Cl)c1NC(=O)CC(C)(C)C,0.12 to 1.2,–
Cc1cc(N2CCc3cc(Cl)ccc3C2)cc(Cl)c1NC(=O)CC(C)(C)C,0.12 to 1.2,–
CC(C)(C)CC(=O)Nc1c(Cl)cc(N2CCc3ccc(F)cc3C2)cc1C(F)(F)F,> 12,–
CC(C)(C)CC(=O)Nc1ccc(N2CCc3cc(F)ccc3C2)cc1Cl,> 12,–
CC(C)(C)CC(=O)Nc1ccc(N2CCc3cc(F)ccc3C2)cc1C(F)(F)F,0.12 to 1.2,–
CC(C)(C)CC(=O)Nc1ccc(N2CCc3cc(C(F)(F)F)ccc3C2)cc1Cl,> 12,–
Cc1cc(N2CCc3ccc(C(F)(F)F)cc3C2)cc(C)c1NC(=O)CC(C)(C)C,0.12 to 1.2,ED50 [2]: 0.12 to 1.2 mg/kg
COc1cc(N2CCc3ccccc3C2)cc(C)c1NC(=O)CC(C)(C)C,0.12 to 1.2,–
CC(C)(C)CC(=O)Nc1c(Cl)cc(N2CCc3ccccc3C2)cc1OC(F)(F)F,> 12,–
COc1cc(N2CCc3ccccc3C2)cc(OC)c1NC(=O)CC(C)(C)C,0.12 to 1.2,ED50 [2]: 0.12 to 1.2 mg/kg
CC(C)(C)CC(=O)Nc1ccc(N2CCc3ccc(C(F)(F)F)cc3C2)cc1C(F)(F)F,0.12 to 1.2,–
COc1ccc2c(c1)CCN(c1cc(C)c(NC(=O)CC(C)(C)C)c(C)c1)C2,> 12,–
Cc1cc(N2CCc3cc(F)ccc3C2)cc(C)c1NC(=O)CC(C)(C)C [drawing 119],0.12 to 1.2,ED50 [2]: 0.12 to 1.2 mg/kg
"CCOC(=O)Nc1ccc(NCc2ccc(F)cc2)cc1N [retigabine, N-[2-amino-4-(4-fluorobenzylamino)phenyl]carbamic acid, ethyl ester, reference compound]",–,KCNQ1 Block (%) [3]: 12%; KCNQ1/NE1 Block (%) [4]: 4.3%; KCNQ2/3 Efficacy Relative to Retigabine (%) [5]: 100%; KCNQ4 Efficacy Relative to Retigabine (%) [6]: 100%; KCNQ5 Efficacy Relative to Retigabine (%) [7]: 100%; EC50 [8]: 291 nM
